pEC50, pIC50: −log10 of the molar value.
Columns and labels:
NCI-H1650 = test: Antiproliferative activity against human H1650 cells assessed as reduction in cell viability after 72 hrs by cell titer glow assay; type: cell-based; settings: NCI-H1650, 72 h
[1] = target: T1, Ubiquitin-like modifier-activating enzyme ATG7 (Homo sapiens, UniProt O95352); test: Inhibition of recombinant His-tagged human ATG7 incubated for 105 mins in presence of GST-tagged ATG3 and Flag-tagged Gabarap and measured after 2 hrs by FRET assay relative to control
T1 sequence (O95352 whole entry): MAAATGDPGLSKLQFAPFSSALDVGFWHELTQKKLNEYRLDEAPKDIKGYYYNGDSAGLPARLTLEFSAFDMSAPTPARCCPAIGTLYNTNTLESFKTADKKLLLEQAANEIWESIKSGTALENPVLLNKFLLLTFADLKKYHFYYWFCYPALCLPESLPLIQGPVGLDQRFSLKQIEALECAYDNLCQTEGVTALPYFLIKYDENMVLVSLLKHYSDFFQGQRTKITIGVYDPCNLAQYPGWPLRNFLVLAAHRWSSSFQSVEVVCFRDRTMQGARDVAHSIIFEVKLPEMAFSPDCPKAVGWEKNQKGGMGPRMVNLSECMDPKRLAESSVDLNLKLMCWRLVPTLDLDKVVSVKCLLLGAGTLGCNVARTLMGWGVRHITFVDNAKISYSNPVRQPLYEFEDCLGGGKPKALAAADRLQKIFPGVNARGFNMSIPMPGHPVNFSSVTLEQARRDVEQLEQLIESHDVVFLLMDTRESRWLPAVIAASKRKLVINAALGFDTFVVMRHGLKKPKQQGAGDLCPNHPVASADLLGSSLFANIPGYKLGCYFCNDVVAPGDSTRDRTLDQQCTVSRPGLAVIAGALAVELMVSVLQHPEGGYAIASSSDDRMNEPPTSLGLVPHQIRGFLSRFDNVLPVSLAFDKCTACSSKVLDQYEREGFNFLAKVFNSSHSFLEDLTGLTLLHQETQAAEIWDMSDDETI

[2] = […] of autophagy in human H4 cells assessed as decrease in LC3B spot area by immunofluorescence assay; type: functional, cell-based
[3] = target: T1, Ubiquitin-like modifier-activating enzyme ATG7; test: Inhibition of ATG7 in human 293HEK cells assessed as inhibition of ATG7:ATG8 thioester formation after 8 hrs by Western blot analysis; type: cell-based, HEK293
[4] = target: T1, Ubiquitin-like modifier-activating enzyme ATG7; test: Inhibition of ATG7 in human 293HEK cells assessed as inhibition of ATG7:ATG8 thioester formation after 4 hrs by Western blot analysis; type: cell-based, HEK293
[5] = Inhibition of UAE (unknown origin)
[6] = Inhibition of NAE (unknown origin)
[7] = Inhibition of SAE (unknown origin)
SK-OV-3 [8] = test: […] of autophagy in human SKOV3 cells assessed as accumulation of NRB1 by immunofluorescence assay; type: functional, cell-based
SK-OV-3 [9] = test: […] of autophagy in human SKOV3 cells assessed as accumulation of p62 by immunofluorescence assay; type: functional, cell-based

Row | SMILES | pEC50 (NCI-H1650) | pIC50 [1] | pIC50 [2] | pIC50 [3] | pIC50 [4] | pIC50 [5] | pIC50 [6] | pIC50 [7] | pEC50 (SK-OV-3 [8]) | pEC50 (SK-OV-3 [9])
1 | Nc1ncnc2c1c(Sc1cccc(Cl)c1)nn2[C@H]1C[C@H](O)[C@H](COS(N)(=O)=O)O1 | < 4.30 | 6.72 | 5.86 | – | – | – | – | – | – | –
2 | CSc1nn([C@@H]2O[C@@H](COS(N)(=O)=O)[C@@H](O)[C@@H]2F)c2ncnc(N)c12 | < 4.30 | 6.84 | 5.60 | – | – | – | – | – | – | –
3 | Nc1ncnc2c1c(OC(F)F)nn2[C@H]1C[C@H](O)[C@@H](COS(N)(=O)=O)O1 | < 4.30 | 7.00 | 5.75 | 6.26 | – | – | – | – | – | –
4 | CC(C)Sc1nn([C@@H]2O[C@H](COS(N)(=O)=O)[C@@H](O)[C@@H]2F)c2ncnc(N)c12 | 4.65 | 7.70 | 6.14 | 7.25 | 6.70 | – | – | – | – | –
5 | CSc1nn([C@@H]2O[C@H](COS(N)(=O)=O)[C@@H](O)[C@@H]2F)c2ncnc(N)c12 | 5.24 | 7.39 | 6.01 | 7.33 | – | – | – | – | – | –
6 | Nc1ncnc2c1c(OCc1ccccc1)nn2[C@@H]1O[C@H](COS(N)(=O)=O)[C@@H](O)[C@H]1O | < 4.30 | 6.58 | – | 5.89 | – | – | – | – | – | –
7 | COc1nn([C@H]2C[C@H](O)[C@@H](COS(N)(=O)=O)O2)c2ncnc(N)c12 | 4.50 | 6.60 | – | – | – | – | – | – | – | –
8 | CC(C)Oc1nn([C@@H]2O[C@H](COS(N)(=O)=O)[C@@H](O)[C@H]2O)c2ncnc(N)c12 | < 4.30 | 5.59 | – | – | – | – | – | – | – | –
9 | Nc1ncnc2c1c(Sc1cn[nH]c1)nn2[C@@H]1O[C@H](COS(N)(=O)=O)[C@@H](O)[C@H]1O | < 4.30 | 7.80 | – | – | 5.89 | – | – | – | – | –
10 | Cc1cccc(Sc2nn([C@@H]3O[C@H](COS(N)(=O)=O)[C@@H](O)[C@@H]3F)c3ncnc(N)c23)c1 | 4.31 | – | 6.32 | 7.29 | 6.85 | – | – | – | – | –
11 | CC(C)Sc1nn([C@H]2C[C@H](O)[C@@H](COS(N)(=O)=O)O2)c2ncnc(N)c12 | < 4.30 | 7.57 | 5.96 | 6.82 | 6.36 | – | – | – | – | –
12 | CC(C)Sc1nn([C@H]2C[C@H](O)[C@H](COS(N)(=O)=O)O2)c2ncnc(N)c12 | < 4.30 | 7.24 | 5.72 | – | 6.33 | – | – | – | – | –
13 | Nc1ncnc2c1c(SCc1ccccc1)nn2[C@@H]1O[C@H](COS(N)(=O)=O)[C@@H](O)[C@H]1O | < 4.30 | 7.64 | – | 6.49 | 6.22 | – | – | – | – | –
14 | Nc1ncnc2c1c(Sc1cccc(Cl)c1)nn2[C@H]1C[C@H](O)[C@@H](COS(N)(=O)=O)O1 | < 4.30 | 6.98 | 5.94 | – | 6.30 | – | – | – | – | –
15 | Nc1ncnc2c1c(Sc1ccc3c(c1)CCC3)nn2[C@H]1C[C@H](O)[C@@H](COS(N)(=O)=O)O1 | < 4.30 | 7.18 | 6.15 | – | – | – | – | – | – | –
16 | Nc1ncnc2c1c(OC(F)F)nn2[C@@H]1O[C@H](COS(N)(=O)=O)[C@@H](O)[C@H]1O | 5.00 | 7.54 | 5.64 | 6.79 | 6.32 | – | – | – | – | –
17 | Cc1cccc(Sc2nn([C@@H]3O[C@H](COS(N)(=O)=O)[C@@H](O)[C@H]3O)c3ncnc(N)c23)c1 | < 4.30 | 7.74 | – | 6.75 | – | – | – | – | – | –
18 | CSc1nn([C@H]2C[C@H](O)[C@H](COS(N)(=O)=O)O2)c2ncnc(N)c12 | < 4.30 | 6.91 | 5.90 | – | – | – | – | – | – | –

Row | SMILES | pEC50 (NCI-H1650) | pIC50 [1] | pIC50 [2] | pIC50 [3] | pIC50 [4] | pIC50 [5] | pIC50 [6] | pIC50 [7] | pEC50 (SK-OV-3 [8]) | pEC50 (SK-OV-3 [9])
19 | Nc1ncnc2c1c(OC(F)F)nn2[C@@H]1O[C@H](COS(N)(=O)=O)[C@@H](O)[C@@H]1F | 4.74 | 7.37 | – | – | 6.34 | – | – | – | – | –
20 | CC(C)Sc1nn([C@@H]2O[C@H](COS(N)(=O)=O)[C@@H](O)[C@H]2O)c2ncnc(N)c12 | < 4.30 | 7.77 | 5.37 | 6.55 | 5.90 | – | – | – | – | –
21 | Cc1cccc(Sc2nn([C@H]3C[C@H](O)[C@@H](COS(N)(=O)=O)O3)c3ncnc(N)c23)c1 | < 4.30 | 7.02 | 5.90 | – | 6.37 | – | – | – | – | –
22 | Nc1ncnc2c1c(Sc1cccc(Cl)c1)nn2[C@@H]1O[C@H](COS(N)(=O)=O)[C@@H](O)[C@@H]1F | 4.40 | 7.51 | 6.27 | 7.25 | 6.70 | – | – | – | – | –
23 | COc1nn([C@@H]2O[C@H](COS(N)(=O)=O)[C@@H](O)[C@H]2O)c2ncnc(N)c12 | 5.23 | 7.05 | 5.59 | 6.47 | – | < 6.00 | < 6.00 | < 4.30 | – | –
24 | Nc1ncnc2c1c(Sc1ccc3c(c1)CCC3)nn2[C@H]1C[C@H](O)[C@H](COS(N)(=O)=O)O1 | < 4.30 | 6.81 | 6.00 | – | – | – | – | – | – | –
25 | Nc1ncnc2c1cnn2[C@@H]1O[C@H](COS(N)(=O)=O)[C@@H](O)[C@H]1O | 7.12 | 6.34 | – | – | – | – | – | – | – | –
26 | COc1nn([C@@H]2O[C@H](COS(N)(=O)=O)[C@@H](O)[C@@H]2F)c2ncnc(N)c12 | 4.47 | 6.75 | – | 6.50 | – | – | – | – | – | –
27 | Nc1ncnc2c1c(CCc1ccccc1)nn2[C@@H]1O[C@H](COS(N)(=O)=O)[C@@H](O)[C@H]1O | < 4.30 | 6.45 | – | – | – | – | – | – | – | –
28 | Cc1ccc(Sc2nn([C@H]3C[C@H](O)[C@@H](COS(N)(=O)=O)O3)c3ncnc(N)c23)c(F)c1 | < 4.30 | 7.10 | 6.27 | – | – | – | – | – | – | –
29 | CSc1nn([C@@H]2O[C@H](COS(N)(=O)=O)[C@@H](O)[C@H]2O)c2ncnc(N)c12 | 5.81 | 7.85 | 5.82 | 7.08 | 6.37 | – | – | – | – | –
30 | Nc1ncnc2c1c(Sc1ccccc1)nn2[C@@H]1O[C@H](COS(N)(=O)=O)[C@@H](O)[C@H]1O | < 4.30 | 7.54 | – | 6.70 | – | – | – | – | – | –
31 | CSc1nn([C@@H]2O[C@@H](COS(N)(=O)=O)[C@@H](O)[C@H]2O)c2ncnc(N)c12 | < 4.30 | 6.49 | 5.22 | – | 5.89 | – | – | – | – | –
32 | CC(C)Sc1nn([C@@H]2O[C@@H](COS(N)(=O)=O)[C@@H](O)[C@H]2O)c2ncnc(N)c12 | < 4.30 | 6.89 | 4.70 | 6.05 | 6.05 | – | – | – | – | –
33 | CCOc1nn([C@@H]2O[C@H](COS(N)(=O)=O)[C@@H](O)[C@H]2O)c2ncnc(N)c12 | 4.31 | 6.59 | – | – | – | – | – | – | – | –
34 | CCSc1nn([C@@H]2O[C@H](COS(N)(=O)=O)[C@@H](O)[C@H]2O)c2ncnc(N)c12 | 4.81 | 7.66 | – | 6.80 | – | – | – | – | – | –
35 | Nc1ncnc2c1c(O)nn2[C@@H]1O[C@H](COS(N)(=O)=O)[C@@H](O)[C@H]1O | < 4.30 | 7.08 | – | – | – | – | – | – | – | –
36 | Cc1ccc(Sc2nn([C@H]3C[C@H](O)[C@H](COS(N)(=O)=O)O3)c3ncnc(N)c23)c(F)c1 | < 4.30 | 7.21 | 6.18 | – | – | < 6.00 | < 6.00 | < 6.00 | 5.03 | 5.52
